Experimental data published in ChEMBL document CHEMBL1201862, “PubChem BioAssay data set” (2004).
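Protocol summary: plate cells (96-well), add compound at 5 concentrations, incubate 48 h, interpolate endpoints linearly. GI50 marks 50% less growth.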 Active and inactive are the calls of the source. Rule as the data show it: active = GI50 up to about 1.1 µM and inactive = higher.

Legend:
Assay in all cases: DTP human tumour cell line panel, 48 h
NCI-H522 = tested on: NCI-H522
ACHN = tested on: ACHN
KM12 = tested on: KM12
NCI-H226 = tested on: NCI-H226
M14 = tested on: M14
SK-OV-3 = tested on: SK-OV-3
SK-MEL-5 = tested on: SK-MEL-5
EKVX = tested on: EKVX
LOX IMVI = tested on: LOX IMVI
HL-60 = tested on: HL-60
SN12C = tested on: SN12C
NCI-H23 = tested on: NCI-H23
SK-MEL-28 = tested on: SK-MEL-28
SK-MEL-2 = tested on: SK-MEL-2
COLO 205 = tested on: COLO 205

Measured: GI50

C/N=C(\SC)N(C)c1nc(=[N+](C)C)ss1.[O-][Cl+3]([O-])([O-])[O-]
inactive: NCI-H522 13.2 µM | ACHN > 100 µM | KM12 > 100 µM | NCI-H226 > 100 µM | M14 > 100 µM | SK-OV-3 > 100 µM | SK-MEL-5 7.21 µM | EKVX 45.3 µM | LOX IMVI > 100 µM | HL-60 7.38 µM | SN12C > 100 µM | NCI-H23 > 100 µM | SK-MEL-28 > 100 µM | SK-MEL-2 > 100 µM

COc1ccc(/C=C2\CCC(CCN3CCOCC3)C2=O)cc1 (configuration not stated)
inactive: ACHN > 100 µM | KM12 > 100 µM | NCI-H226 > 100 µM | M14 > 100 µM | SK-MEL-5 > 100 µM | EKVX > 100 µM | LOX IMVI > 100 µM | HL-60 > 100 µM | SN12C > 100 µM | NCI-H23 > 100 µM | SK-MEL-28 > 100 µM | SK-MEL-2 > 100 µM

CCNC(=O)O/N=C1/C=C2CC[C@@H]3C(CC[C@@]4(C)C3CC[C@@H]4OC(=O)NCC)[C@@]2(C)CC1 (some centres not stated)
inactive: NCI-H522 1.95 µM | ACHN 2.75 µM | COLO 205 2.44 µM | KM12 2.54 µM | M14 2.96 µM | SK-OV-3 3.68 µM | SK-MEL-5 3.44 µM | EKVX 4.99 µM | LOX IMVI 3.32 µM | SN12C 4.28 µM | NCI-H23 3.07 µM | SK-MEL-28 3.32 µM | SK-MEL-2 2.21 µM

Cc1ccc(NC(=O)SCCC(=O)O)cc1NC(=O)SCCC(=O)O
inactive: NCI-H522 > 100 µM | ACHN > 100 µM | COLO 205 > 10 µM | KM12 > 100 µM | NCI-H226 > 100 µM | M14 > 100 µM | EKVX > 100 µM | LOX IMVI > 100 µM | HL-60 > 100 µM | SN12C > 100 µM | NCI-H23 > 100 µM | SK-MEL-28 > 100 µM | SK-MEL-2 > 100 µM

Cc1ccc(S(=O)OC2c3ccccc3Cc3ccccc32)cc1 (configuration not stated)
inactive: NCI-H522 13.9 µM | ACHN 22.4 µM | COLO 205 17.5 µM | KM12 21.2 µM | NCI-H226 18.5 µM | M14 18.6 µM | SK-OV-3 19.5 µM | SK-MEL-5 19.3 µM | EKVX 18.6 µM | LOX IMVI 14.4 µM | HL-60 17.6 µM | SN12C 20.3 µM | NCI-H23 18.6 µM | SK-MEL-28 19.2 µM

Cn1c(=O)c2nc(-c3ccc(Cl)cc3)oc2n(C)c1=O
inactive: NCI-H522 > 100 µM | ACHN > 100 µM | KM12 > 100 µM | NCI-H226 > 100 µM | M14 > 100 µM | SK-MEL-5 > 100 µM | EKVX > 100 µM | LOX IMVI > 100 µM | HL-60 > 100 µM | SN12C > 100 µM | NCI-H23 > 100 µM | SK-MEL-28 > 100 µM | SK-MEL-2 > 100 µM

CCOc1c(Cc2ccccc2)c(=O)n2c3ccccc3n3c(=O)n(C)c(=O)c1c23
inactive: ACHN > 100 µM | COLO 205 > 100 µM | KM12 > 100 µM | M14 > 100 µM | SK-OV-3 > 100 µM | SK-MEL-5 > 100 µM | EKVX > 100 µM | LOX IMVI > 100 µM | SN12C > 100 µM | NCI-H23 > 100 µM | SK-MEL-28 > 100 µM | SK-MEL-2 > 100 µM

O=c1cccccc1NCCCCCCCNc1cccccc1=O
inactive: NCI-H522 13.8 µM | ACHN 26.7 µM | COLO 205 40.1 µM | KM12 56.4 µM | NCI-H226 34.5 µM | M14 23 µM | SK-OV-3 42.6 µM | EKVX 20.4 µM | LOX IMVI 12.1 µM | HL-60 11.1 µM | SN12C 49.3 µM | NCI-H23 19.7 µM | SK-MEL-2 49 µM

Cc1[nH]c2ccccc2c1CC/C(=N\Nc1ccccc1)c1ccccc1
inactive: ACHN > 100 µM | KM12 > 100 µM | NCI-H226 > 100 µM | M14 > 100 µM | SK-OV-3 > 100 µM | SK-MEL-5 > 100 µM | EKVX > 100 µM | HL-60 > 100 µM | NCI-H23 > 100 µM | SK-MEL-28 > 100 µM | SK-MEL-2 > 100 µM

OC[C@@H]1CC#C/C=C\C#CC[C@@H]1CO
inactive: COLO 205 > 100 µM | KM12 > 100 µM | M14 > 100 µM | SK-OV-3 > 100 µM | SK-MEL-5 > 100 µM | EKVX > 100 µM | HL-60 > 100 µM | NCI-H23 > 100 µM | SK-MEL-28 > 100 µM | SK-MEL-2 > 100 µM

COC(=O)NN1C(C)=C(C(=O)OC)C2(C#N)C(C(=O)OC)=C(C)N(NC(=O)OC)C12N (configuration not stated)
inactive: NCI-H522 > 100 µM | ACHN > 100 µM | COLO 205 > 100 µM | NCI-H226 > 100 µM | M14 > 100 µM | SK-OV-3 > 100 µM | EKVX > 100 µM | LOX IMVI > 100 µM | HL-60 > 100 µM | SN12C > 100 µM | NCI-H23 > 100 µM | SK-MEL-28 > 100 µM | SK-MEL-2 > 100 µM

N=C(N)N/N=C(/CCN1CCCC1)CC(c1ccccc1)c1c(O)c2ccccc2oc1=O (configuration not stated)
inactive: NCI-H522 > 100 µM | ACHN > 100 µM | COLO 205 > 100 µM | NCI-H226 > 100 µM | M14 > 100 µM | SK-OV-3 > 100 µM | EKVX > 100 µM | LOX IMVI > 100 µM | SN12C > 100 µM | NCI-H23 > 100 µM | SK-MEL-28 > 100 µM | SK-MEL-2 > 100 µM

CN(C)CC1CCCC/C1=N/OC(=O)c1ccc(Cl)cc1 (configuration not stated)
inactive: NCI-H522 > 100 µM | ACHN > 100 µM | COLO 205 > 100 µM | KM12 > 100 µM | NCI-H226 > 100 µM | M14 > 100 µM | SK-OV-3 > 100 µM | EKVX > 100 µM | LOX IMVI > 100 µM | HL-60 > 100 µM | SN12C > 100 µM | NCI-H23 > 100 µM | SK-MEL-28 > 100 µM | SK-MEL-2 > 100 µM

CCCCCCCCCOC(=S)NCCCCC
inactive: NCI-H522 20.3 µM | ACHN 29.1 µM | M14 28.6 µM | SK-OV-3 29.4 µM | SK-MEL-5 21.5 µM | EKVX 35.2 µM | LOX IMVI 15.6 µM | HL-60 16.6 µM | SN12C 26.2 µM | NCI-H23 26.7 µM | SK-MEL-28 38.7 µM

Cc1ccc(Oc2ccccc2N)cc1
inactive: COLO 205 6.07 µM | KM12 33.3 µM | M14 33.5 µM | SK-OV-3 > 100 µM | SK-MEL-5 7.89 µM | EKVX 37.5 µM | LOX IMVI 23 µM | HL-60 10.4 µM | SN12C 31.7 µM | NCI-H23 39.9 µM | SK-MEL-28 18.2 µM | SK-MEL-2 51.5 µM
